From patent US20260297129A1, “PEPTIDES AS SELECTIVE IL-23 RECEPTOR INHIBITORS” (SANOFI, priority 2023, published 2026)
Values after ≈ are worked out from the molar mass of the structure shown. Read-outs that look alike come from different tables or passages of the source. Numbered stars: 1 amine (or outer) side, 2 acyl side, 3 side chain; on linkers, the order of the positions; unused ones are H or OH. Bridge positions count the residues as written; N and C are the ends. Square brackets hold non-standard residues; d marks the D form. Peptide text beside a SMILES is read from it. * marks the point of attachment. Lys(Me,(CH2)4NMe(CH2)4CO) = CN(CCCCC(=O)[*:3])CCCCN(C)CCCC[C@H](N[*:1])C(=O)[*:2]; Trp(7-Me) = Cc1cccc2c(C[C@H](N)C(=O)O)c[nH]c12; Trp(1-Me) = Cn1cc(C[C@H](N)C(=O)O)c2ccccc21; NH(2-(3-pyridyl)ethyl) = c1cncc(CCN*)c1; Sebacoyl = O=C(CCCCCCCCC(=O)[*:2])[*:1]; NH(CH2)9CO = O=C(CCCCCCCCCN[*:1])[*:2]; 2Nal = N[C@@H](Cc1ccc2ccccc2c1)C(=O)O; X4 = O=C(CCCCCCCCCCCCCCCN[*:1])[*:2]; 3Pal = N[C@@H](Cc1cccnc1)C(=O)O; Lys(Me) = CNCCCC[C@H](N)C(=O)O; Thp = NC1(C(=O)O)CCOCC1; Me2NCH2CH2 = CN(C)CC*; Aib = CC(C)(N)C(=O)O; Aoc = NCCCCCCCC(=O)O; Sar = CNCC(=O)O

Key:
[1] = system: IL-23 induced STAT3 signaling (IL-23 receptor) in HEK-Blue IL-23 cells; assay: Inhibition of IL-23 induced STAT3 signaling in HEK-Blue IL-23 cells, SEAP reporter (Table 9); format: cell-based; conditions: human IL23 0.25 ng/ml, overnight, read-out: Inhibition of IL-23 induced pSTAT3 (IC50 nM)
How it was run: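 STAT3-driven SEAP output measured at OD 620–655 nm after 45 min QUANTI-Blue development of supernatant, with dose-response fits. Peptides were given 60 min ahead of 0.25 ng/ml (final) human IL-23, followed by overnight culture at 37 °C; 10,000 HEK-Blue IL-23 cells per well.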

[2] = Protease stability in simulated intestinal fluids (FaSSIF) (Table 7); format: in vitro ADME; conditions: fassif with pancreatin, 37° C.; for remaining at 1 h, 1 µM: 60 min, read-out: Remaining percentage of peptide compound, FaSSIF 60 (min); for remaining at 2 h, 1 µM: 120 min, read-out: Remaining percentage of peptide compound, FaSSIF 120 (min); for remaining at 4 h, 1 µM: 240 min, read-out: Remaining percentage of peptide compound, FaSSIF 240 (min)
How it was run: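 Percent parent remaining was derived from LC-MS/MS peak areas normalised to time 0, set at 100%. Sampling at 0, 60, 120 and 240 min, quenched in ethanol with 0.1% HCOOH. Final peptide 1 μM, 37° C, SIF containing pancreatin.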

human IL-23R = molecular target: T1, human IL-23R (Homo sapiens, UniProt Q5VWK5); assay: Inhibition of IL-23 binding to IL-23R as measured by ELISA (Table 8); conditions: human IL23 coated 1 μg/ml; human IL-23R-Fc 0.1 μg/ml; 60 min; read-out: Human ELISA IL23/IL23R IC50
T1 sequence (Q5VWK5 24-353 limits assumed): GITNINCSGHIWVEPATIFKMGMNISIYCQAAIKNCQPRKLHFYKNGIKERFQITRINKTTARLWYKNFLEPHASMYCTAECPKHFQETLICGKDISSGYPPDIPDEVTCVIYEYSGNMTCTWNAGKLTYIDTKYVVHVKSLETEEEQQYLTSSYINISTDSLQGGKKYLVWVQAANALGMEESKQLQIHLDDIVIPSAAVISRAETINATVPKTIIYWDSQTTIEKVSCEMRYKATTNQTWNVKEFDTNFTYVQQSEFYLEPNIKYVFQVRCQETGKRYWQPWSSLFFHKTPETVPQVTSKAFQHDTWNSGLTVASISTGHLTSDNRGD
Protocol: Antagonism of compounds for human interleukin-23 receptor inhibitors, was determined by an ELISA assay.
A 384-well plate was coated with 50 μl/well of human IL23 at a final concentration of 1 μg/ml and incubated overnight at 4° C. The wells were washed 3 times with 80 μl wash buffer and blocked with 80 μl blocking buffer for 60 minutes at room temperature and washed again. 20 μl of serially diluted test peptides was added to each well and subsequently 20 μl of recombinant human IL-23R-Fc chimera at final concentration of 0.1 μg/ml. The plate was incubated for 60 minutes at room temperature. After the wells were washed, bound IL23R-Fc was detected with goat anti-hu-IgG1-HRP antibody. Signals were visualized with QUANTABLU fluorogenic peroxidase substrate.

[3] = Protease stability in simulated gastric fluids (FaSSGF) (Table 7); format: in vitro ADME; conditions: fassgf with pepsin, 60 min, 37° C., read-out: Remaining percentage of peptide compound, FaSSGF 60 (min)
How it was run: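 Peptides at 1 μM final were incubated at 37 °C in simulated gastric fluid with pepsin (320 mg per 100 mL SGF concentrate). Samples were quenched with ethanol (0.1% HCOOH) at 0, 60, 120 and 240 min and analysed by LC-MS/MS. Percent remaining is the peak area relative to T0 (100%).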

[4] = Solubility of peptide compounds in buffer formulations (Table 5); format: physicochemical; conditions: target 1 mg/ml
How it was run: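 Solubility was quantified by UHPLC-UV, comparing 1:10-diluted filtrate peak areas with a DMSO reference standard and correcting for extinction coefficients. Samples were prepared from dried DMSO stock at 1 mg/mL nominal in pH 1.2 HCl, pH 6.5 or pH 7.4 phosphate (50 mM), and agitated 2 h.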

[5] = Chemical stability (relative purity loss) of peptide compounds in buffer formulations (Table 6); format: physicochemical; conditions: 2° C. and 37° C.
How it was run: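 Compounds at 0.5 mg/mL in 50 mM HCl pH 1.2, 50 mM phosphate pH 6.5 or pH 7.4, each with acetonitrile (3:1), stored 24 hours at 2° C and 37° C. Purity measured by UHPLC-UV before and after. Stability expressed as relative purity loss.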

[6] = Buffer pH 1.1 (head; method: 50 mM HCl pH 1.2), 2 h agitation, read-out: Solubility, Buffer pH 1.1
[7] = aqueous buffer, 50 mM phosphate buffer pH 6.5, 2 h agitation, read-out: Solubility, Buffer pH 6.5
[8] = aqueous buffer, 50 mM phosphate buffer pH 7.4, 2 h agitation, read-out: Solubility, Buffer pH 7.4
[9] = 50 mM phosphate buffer pH 6.5 + acetonitrile (3:1), read-out: Chemical stability (relative purity loss), Buffer pH 6.5
[10] = 50 mM phosphate buffer pH 7.4 + acetonitrile (3:1), read-out: Chemical stability (relative purity loss), Buffer pH 7.4
[11] = 50 mm hcl + acetonitrile, Buffer pH 1.1 (head; method: 50 mM HCl pH 1.2 + acetonitrile 3:1), read-out: Chemical stability (relative purity loss), Buffer pH 1.1

Row | remaining at 1 h, 1 µM [2] [%] | remaining at 2 h, 1 µM [2] [%] | remaining at 4 h, 1 µM [2] [%] | IC50 (human IL-23R) [nM] | remaining at 1 h, 1 µM [3] [%] | solubility at 2 h [4, 6] [µg/mL] | solubility at 2 h [4, 7] [µg/mL] | solubility at 2 h [4, 8] [µg/mL] | degraded at 24 h [5, 9] [%] | degraded at 24 h [5, 10] [%] | degraded at 24 h [5, 11] [%] | Compound | IC50 [1] [nM]
1 | 97 | 93 | 92 | – | 100 | ≥ 980 | ≥ 1070 | ≥ 1060 | 0 | 0 | 5.7 | CN(C)CCOc1ccc(C[C@@H]2NC(=O)C3(CCOCC3)NC(=O)[C@H](CCC(N)=O)NC(=O)[C@H](Cc3cn(C)c4ccccc34)NC(=O)CCCCN(C)CCCCN(C)CCCC[C@@H](C(=O)N[C@@H](CO)C(=O)N[C@@H](Cc3cccnc3)C(=O)N(C)CC(N)=O)NC(=O)C(C)(C)NC(=O)[C@H](Cc3ccc4ccccc4c3)NC2=O)cc1 [compound 40] ([Trp(1-Me)]Q[Thp]Y(Me2NCH2CH2)[2Nal][Aib][Lys(Me,(CH2)4NMe(CH2)4CO)]S[3Pal][Sar]-NH2; lactam N-7) | 2.26
2 | 96 | 93 | 84 | – | 97 | ≥ 950 | ≥ 1080 | ≥ 1120 | 0 | 0.5 | 3.6 | CC(=O)NCCCC[C@@H]1NC(=O)[C@H](Cc2c[nH]c3c(C)cccc23)NC(=O)CCCCN(C)CCCCN(C)CCCC[C@@H](C(=O)N[C@@H](CC(N)=O)C(=O)N[C@@H](Cc2cccnc2)C(=O)N(C)CC(N)=O)NC(=O)C(C)(C)NC(=O)[C@H](Cc2ccc3ccccc3c2)NC(=O)[C@H](Cc2ccc(OCCN(C)C)cc2)NC(=O)C2(CCOCC2)NC1=O [compound 32] ([Trp(7-Me)]K(Ac)[Thp]Y(Me2NCH2CH2)[2Nal][Aib][Lys(Me,(CH2)4NMe(CH2)4CO)]N[3Pal][Sar]-NH2; lactam N-7) | 0.53
3 | 88 | 85 | 85 | – | 100 | ≥ 960 | ≥ 1050 | ≥ 890 | 0 | 0 | 6 | Cc1cccc2c(C[C@@H]3NC(=O)CCCCN(C)CCCCN(C)CCCC[C@@H](C(=O)N[C@@H](CC(N)=O)C(=O)N[C@@H](Cc4cccnc4)C(=O)N(C)CC(N)=O)NC(=O)C(C)(C)NC(=O)[C@H](Cc4ccc5ccccc5c4)NC(=O)[C@H](Cc4ccc(OCCN(C)C)cc4)NC(=O)C4(CCOCC4)NC(=O)[C@H](CCC(N)=O)NC3=O)c[nH]c12 [compound 46] ([Trp(7-Me)]Q[Thp]Y(Me2NCH2CH2)[2Nal][Aib][Lys(Me,(CH2)4NMe(CH2)4CO)]N[3Pal][Sar]-NH2; lactam N-7) | 0.72
4 | – | – | – | 0.84 | – | ≥ 990 | ≥ 900 | ≥ 880 | – | – | – | Cc1cccc2c(C[C@@H]3NC(=O)CCCCN(C)CCCCN(C)CCCC[C@@H](C(=O)NCC(=O)NCCc4cccnc4)NC(=O)C(C)(C)NC(=O)[C@H](Cc4ccc5ccccc5c4)NC(=O)[C@H](Cc4ccc(OCCN(C)C)cc4)NC(=O)C4(CCOCC4)NC(=O)[C@H](CCC(N)=O)NC3=O)c[nH]c12 [compound 24] ([Trp(7-Me)]Q[Thp]Y(Me2NCH2CH2)[2Nal][Aib][Lys(Me,(CH2)4NMe(CH2)4CO)]G-{NH(2-(3-pyridyl)ethyl)}; lactam N-7) | 6.95
5 | 80 | 78 | 74 | 0.63 | 97 | ≥ 1390 | 120 (≈ 73.6 µM) | 80 (≈ 49.1 µM) | – | – | – | Cc1cccc2c(C[C@@H]3NC(=O)CCCCCCCCC(=O)N(C)CCCC[C@@H](C(=O)N[C@@H](CC(N)=O)C(=O)N[C@@H](Cc4cccnc4)C(=O)N(C)CC(N)=O)NC(=O)C(C)(C)NC(=O)[C@H](Cc4ccc5ccccc5c4)NC(=O)[C@H](Cc4ccc(OCCN(C)C)cc4)NC(=O)C4(CCOCC4)NC(=O)[C@H](CCC(N)=O)NC3=O)c[nH]c12 [compound 19] ([Trp(7-Me)]Q[Thp]Y(Me2NCH2CH2)[2Nal][Aib][Lys(Me)]N[3Pal][Sar]-NH2; linker N-7 via Sebacoyl) | 0.24

The next lines start with the compound.

Row | Compound | remaining at 1 h, 1 µM [2] [%] | remaining at 2 h, 1 µM [2] [%] | remaining at 4 h, 1 µM [2] [%] | IC50 (human IL-23R) [nM] | remaining at 1 h, 1 µM [3] [%] | solubility at 2 h [4, 6] [µg/mL] | solubility at 2 h [4, 7] [µg/mL] | solubility at 2 h [4, 8] [µg/mL] | degraded at 24 h [5, 9] [%] | degraded at 24 h [5, 10] [%] | degraded at 24 h [5, 11] [%] | IC50 [1] [nM]
6 | Cc1cccc2c(C[C@@H]3NC(=O)CCCCCCCCCCCCCCCNC(=O)CC[C@@H](C(=O)N[C@@H](CC(N)=O)C(=O)N[C@@H](Cc4cccnc4)C(=O)N(C)CC(N)=O)NC(=O)C(C)(C)NC(=O)[C@H](Cc4ccc5ccccc5c4)NC(=O)[C@H](Cc4ccc(OCCN(C)C)cc4)NC(=O)C4(CCOCC4)NC(=O)[C@H](CCC(N)=O)NC3=O)c[nH]c12 [compound 3] ([X4][Trp(7-Me)]Q[Thp]Y(Me2NCH2CH2)[2Nal][Aib]EN[3Pal][Sar]-NH2; lactam N-8) | 84 | 81 | 81 | 1.33 | 71 | ≥ 990 | < 10 | < 10 | – | – | – | 9.92
7 | Cc1cccc2c(C[C@@H]3NC(=O)CCCCCCCNC(=O)CC[C@@H](C(=O)N[C@@H](CC(N)=O)C(=O)N[C@@H](Cc4cccnc4)C(=O)N(C)CC(N)=O)NC(=O)C(C)(C)NC(=O)[C@H](Cc4ccc5ccccc5c4)NC(=O)[C@H](Cc4ccc(OCCN(C)C)cc4)NC(=O)C4(CCOCC4)NC(=O)[C@H](CCC(N)=O)NC3=O)c[nH]c12 [compound 6] ([Aoc][Trp(7-Me)]Q[Thp]Y(Me2NCH2CH2)[2Nal][Aib]EN[3Pal][Sar]-NH2; lactam N-8) | 86 | 77 | 77 | 0.67 | 88 | ≥ 1240 | ≥ 1040 | ≥ 1090 | – | – | – | 4.77
8 | Cc1cccc2c(C[C@@H]3NC(=O)CCCCCCCCCNC(=O)CC[C@@H](C(=O)N[C@@H](CC(N)=O)C(=O)N[C@@H](Cc4cccnc4)C(=O)N(C)CC(N)=O)NC(=O)C(C)(C)NC(=O)[C@H](Cc4ccc5ccccc5c4)NC(=O)[C@H](Cc4ccc(OCCN(C)C)cc4)NC(=O)C4(CCOCC4)NC(=O)[C@H](CCC(N)=O)NC3=O)c[nH]c12 [compound 5] ([NH(CH2)9CO][Trp(7-Me)]Q[Thp]Y(Me2NCH2CH2)[2Nal][Aib]EN[3Pal][Sar]-NH2; lactam N-8) | 77 | 74 | 70 | 0.64 | 87 | ≥ 1010 | 350 (≈ 218 µM) | 170 (≈ 106 µM) | – | – | – | 0.26
